Laboratory results reported in patent US20190225643A1, “NOVEL NUCLEOSIDE ANALOGS AND USE THEREOF IN THERAPEUTIC TREATMENT” (CORNELL UNIVERSITY, priority 2016, published 2019).

Legend:
[1] = test system: IBL1, LY7 and BCKN1 cells; assay: Viability assay at higher plating density; assay type: cell-based; conditions: 5*10^5 cells/mL versus original assay conditions
Protocol: […] ATP content at 24, 48 and 72 hours post-treatment was measured by the CellTiter-Glo kit (Promega, Madison, Wis.), or by Trypan blue assay as indicated. The LC50 for 6-ETI in each cell line was determined using online EC50 software at changbioscience.com or using GraphPad Prism to determine the LC50 for 6-ETI, phospho-6-ETI and nucleoside analogs in MM cell lines and primary MM patient samples.

[2] = test system: normal plasma cells (CD19-, CD138+) from human tonsils; assay: Toxicity on normal primary tonsillar lymphocytes; assay type: cell-based; conditions: 1 μM and 10 μM, 24 hours
Protocol: Primary human tonsil specimens were obtained from the Weill Cornell/New York Presbyterian Institutional Biobank. Lymphocytes were isolated from human tonsil tissue by dissection and maceration in RPMI media. Lymphocyte-containing media was passed through a 70 μm filter and pelleted at 400 g for 7 minutes. RBC were lysed for 5 minutes in RBC lysing solution (0.15M ammonium chloride, 10 mM potassium bicarbonate, […]). After dilution to 50 ml with RPMI, lymphocytes were filtered through a […] filter, counted and pelleted a second time. Total B cells were isolated using magnetic cell sorting according to manufacturer instructions (Miltenyi Cat#130-091-151). Cells were plated at 2 million cells/ml in RPMI with 20% FBS and 100 μg/ml Primocin (Invivogen) and laid over gamma-irradiated CDW32 feeder cells. Cells were then treated with DMSO, 1 μM or 10 μM 6-ETI for 24 hrs. […] Data was acquired on a BD LSR2 Flow Cytometer and analyzed using FlowJo software. The frequency of plasma cells was assessed based on singlet-gated cells expressing CD138.

[3] = test system: PA-Tu-8988T pancreatic adenocarcinoma cell line; assay type: cell-based, human
Protocol: (§1) Cell viability assays were performed by plating log-phase cells in RPMI complete media with 20% FBS at 1*10^5 cells/mL, with concentrations of 6-ETI or phospho-6-ETI ranging from 0.1 nM to 100 μM. ATP content at 24, 48 and 72 hours post-treatment was measured by the CellTiter-Glo kit (Promega, Madison, Wis.), or by Trypan blue assay as indicated. The LC50 for 6-ETI in each cell line was determined using online EC50 software at changbioscience.com or using GraphPad Prism to determine the LC50 for 6-ETI, phospho-6-ETI and nucleoside analogs in MM cell lines and primary MM patient samples.
Pancreatic adenocarcinoma PA-Tu-8988T cell line was kindly provided by Lewis Cantley's lab (Weill Cornell Medicine). […] of ADK in this cell line was achieved by transducing these cells with ADK shRNA Lentiviral Particles (Santa crux) and selecting the stable cell line using 2 μg/ml Puromycin.

[4] = test system: Primary CD138+ human myeloma cells; assay: Ex vivo viability of primary multiple myeloma samples; assay type: cell-based; conditions: 24 hours
Protocol: as §1
Bone marrow specimens were obtained from multiple myeloma patients at the New York-Presbyterian Hospital under informed consent as part of an Institutional Review Board-approved study in accordance with the Declaration of Helsinki. Primary CD138^+ human myelorna cells were isolated by Ficoll-Hypaque density gradient centrifugation. The CD138^+ bone marrow myeloma cells were then enriched from this fraction to >95% purity using an automated MACS CD138 MicroBeads system (Miltenyi Biotechnology, Inc., Auburn, Calif.). […] PBLs were harvested from normal blood using Ficoll-Paque (Sigma-Aldrich) as described previously. Cells were plated in RPMI-1640 supplemented with 20% FBS.

[5] = test system: p65/p50 binding to the NF-κB response element in BC3 PEL cell line; assay: EMSA of NF-κB binding in BC3 cells; assay type: cell-based, human
Protocol: BC3 or LCL9001 cells were plated at 5*10^5 cells/ml, and treated with the hit compounds at 25 μM or with NSC39368 at 5, 10, 25 and 50 μM for 24 hours. Nuclear extracts were obtained as previously described (Keller S. A. et al., Blood. 2000 96(7):2537-42), and electrophoretic mobility shift assays (EMSAs) were performed using an NF-κB-specific oligonucleotide probe.

[6] = test system: KSHV latent proteins LANA, vFLIP and vCyclin; assay: Western blot of KSHV latent proteins; assay type: cell-based
Protocol: For all intracellular signaling studies, cell lines were plated at 2*10^5 cells/mL or at indicated densities in RPMI-1640 with 20% FBS, and treated with the stated concentrations of 6-ETI, from 6 to 48 hours. Immunoblotting was performed using the following antibodies: PARP (BD Pharmingen, 556494), LC3B (Cell Signaling, 2775S), phospho-l-listone H2AX.X S139 (Cell Signaling, 2577S), GAPDH (Gene Tex, GTX100118), ADK (Santa Cruz, sc-365470) vFLIP 6/14 antibody was a gift from Mary Collins at University College of London, vCyclin (Abcam, ab12208), LANA (Advanced Biotechnologies, 13-210-100), β-Actin (Sigma A5316), p65 (Cell Signaling C22B4, p50 (Cell Signaling 3035), October-1 (Cell Signaling 4428), p-IκBα (Santa Cruz 3-9 sc-8404), IκBα (Santa Cruz C-21 sc-371), pIKKα/β (ser 176)(Santa Cruz sc-21661), IKKα (Santa Cruz H-744 sc-7218).

[7] = test system: KSHV lytic reactivation in JSC1 PEL cell line; assay: Lytic reactivation flow assay in rKSHV.219 infected JSC1 cells; assay type: cell-based; conditions: in a small proportion of cells; 1 or 10 μM, 24 or 48 hours
Protocol: Lytic reactivation low was performed as previously described (Soulier J. et al., Blood 1995;86(4):1276-80). JSC1 B3.1 cells in the exponential phase were seeded at 2*10^5 cells/mL and treated with 1 or 10 μM 6-ETI for 24 or 48 hours, or 20 ng/mL lytic inducer TPA for 48 hours.

PEL cells (BC3) = assay: Viability after zVAD-FMK pan-caspase inhibitor pre-treatment; assay type: cell-based, human; conditions: 80 μM zVAD-FMK pre-treatment, 48 hours
Protocol: as §1

CCSc1ncnc2c1ncn2[C@@H]1O[C@H](CO)C(O)[C@@H]1O (stereo partly drawn) [Compound 6-ETI, 6-ethylthioinosine]
LC50 change at higher cell density [1]: decreased strikingly
total number or proportion of normal plasma cells [2]: did not find a decrease in the total number or proportion of plasma cells
change in LC50 on ADK knockdown [3]: a log increase in LC50
sensitivity ex vivo [4]: showed sensitivity
inhibition of active heterodimer p65/p50 binding to the NF-κB response element ([5]; BC3, 24 hours): effectively inhibited
doses effective in inhibiting NF-κB in PELs ([5]; PEL cells): 10 to 50 µM
latent viral protein expression [6]: no reduction was seen in latent viral protein expression
lytic reactivation [7]: induction of lytic reactivation
caspase dependence of induced cell death (PEL cells (BC3)): largely caspase-independent
